According to US11701345B2, “Car activator agents for cyclophosphamide-based treatments of cancer” (UNIVERSITY OF MARYLAND, BALTIMORE, priority 2017, dated 2023):
“Also recorded” adds a separate entry of the source.

What was measured:
[1] = tested on: H9c2 cells; test: CHOP cytotoxicity in side-toxic H9c2 cells; assay type: cell-based, rat; conditions: FIGS. 10A-10C, 11A-11F
Method: (§1) Homogenate proteins from treated HPH, H9c2 or HepaRG cells were resolved on NuPAGE Novex Bis-Tris 4% to 12% gels (Life Technologies) and electrophoretically transferred onto immobilon-P polyvinylidene difluoride membranes. Membranes were incubated with specific antibodies against human CAR (Perseus Proteomics), cleaved caspase-3 (Cell Signaling Technology), or g-H2AX (Millipore), diluted 1:1,000, 1:1,000, and 1:400, respectively. b-Actin was used to normalize protein loading. Following incubation with horseradish peroxidase goat antimouse or anti-rabbit IgG antibody, membranes were developed using SuperSignal West Pico Chemiluminescent Substrate (Thermo Scientific). Western blot signals were quantified by densitometry using ImageJ software from the National Institutes of Health.
HPHs and H9c2 rat cardiomyocytes were seeded at 7.5×10^4 cells per well in 96-well plates. […] Culture medium containing CHOP drugs and metabolites was exchanged between the cell types at pre-determined time points. […] Cell viability was expressed as the percentage of vehicle control (0.1% DMSO). […] The viability of the SU-DHL-4 cells was determined at selected time points with a Cellometer Auto T4 (Nexcelom Biosciences) using trypan blue exclusion.

[2] = tested on: EL4-derived xenograft; test: EL4-derived xenograft in hCAR transgenic mice treated with CHOP; assay type: in vivo, mouse; conditions: hCAR-TG mice, compared with vehicle, CITCO and CHOP controls; FIGS. 13-14
Method: The effects of the novel hCAR activator e.g. CITCO on the CHOP based anticancer therapy has been examined in EL4-derived xenograft hCAR transgenic mouse model (FIG. 12). The tumor volume reduction was measured to determine the effects of hCAR activator on the CHOP treatment upon xenograft tumor model in mouse.

[3] = tested on: SU-DHL-4 cells; test: Hepatocyte/lymphoma co-culture with CHOP: cancer cell death, viability, caspase-3; assay type: cell-based, human
Method: HPH were cultured in collagen-coated 12-well plates and pretreated with vehicle control (0.1% DMSO) or hCAR activator (1 mmol/L) for 24 hours. The wells were then separated with […] polycarbonate membrane inserts (Sigma-Aldrich). A total of 0.5×10^6 SU-DHL-4 cells suspended in supplemented Williams' Medium E were transferred into the insert chamber with a final volume of 2 mL/well. In separate coculture experiments, HPH were replaced with either WT or CAR-KO HepaRG cells. The cocultures were exposed to designated concentrations of the chemotherapy drugs in CHOP in the presence or absence of hCAR activator for various time intervals, as indicated.
as §1
HPHs and H9c2 rat cardiomyocytes were seeded at 7.5×10^4 cells per well in 96-well plates. HPH were cultured for 24 hours before treatment with hCAR activator (1 mmol/L) or vehicle control (0.1% DMSO), followed by treatment with the chemotherapy drugs included in CHOP at a range of concentrations. Culture medium containing CHOP drugs and metabolites was exchanged between the cell types at pre-determined time points. A typical 3-[4,5-dimethylthiazol-2-yl]-2,5 diphenyl tetrazolium bromide (MTT) assay was carried out as described previously (21). Cell viability was expressed as the percentage of vehicle control (0.1% DMSO). Cocultured cells were assembled and treated as described above. The viability of the SU-DHL-4 cells was determined at selected time points with a Cellometer Auto T4 (Nexcelom Biosciences) using trypan blue exclusion.

Compound: Clc1ccc(-c2nc3sccn3c2/C=N/OCc2ccc(Cl)c(Cl)c2)cc1 [CITCO, (E)-6-(4-chlorophenyl)imidazo[2,1-b]thiazole-5-carbaldehyde O-(3,4-dichlorobenzyl) oxime]
- effect on CHOP-mediated cytotoxicity in H9c2 cells [1]: not H9c2 cells
- effect on therapeutic effects of CHOP (tumor volume, tumor mass) [2]: potentiate the therapeutic effects of the CHOP regimen
- effect on CHOP anticancer activity (cancer cell death) ([3]; hepatocyte/lymphoma co-culture, added to CHOP, FIGS. 10B-C): enhances CHOP-mediated cytoxicity; also recorded: potentiates the beneficial effects of CHOP in causing cancer cell death
- Caspase-3 expression on addition to CHOP ([3]; lymphoma cells, FIGS. 11A-11F): induction of apoptosis protein caspase-3; also recorded: dose dependent response of Caspase-3 expression
